Patent US7307071B2, “RAF-MEK-ERK pathway inhibitors to treat cancer” (Onyx Pharmaceuticals, Inc, priority 2001, dated 2007)

Assays:
[1] = tested on: phospho-ERK in Ba/F3 cells expressing Bcr-Abl imatinib resistant mutants E255K and T315I; test: ERK phosphorylation, Western blot with phospho-ERK antibody; format: cell-based, mouse; conditions: FIG. 5
Experimental: (§1) The experiment was conducted as follows. On day 1, 2×10^6 cells were plated in a 6 well plate in medium containing 10% serum, and on day 2 the cells were treated with the relevant compound dissolved in DMSO. The final DMSO concentration was 0.2%. Next, the cells were spun down, and washed once with 2 ml of ice-cold phosphate buffered saline, and then lysed with […] buffer. Next, 50 ul of cell lysates was electrophoresed in 10% Tris-Glycine gels, followed by treatment with a 1° antibody which was a phospho-ERK polyclonal rabbit antibody used at 1:1000 dilution. It was obtained from Cell Signaling. The 1° was followed by a 2° antibody which was goat anti-rabbit horse radish peroxidase antibody, and it was used at a dilution of 1:1000. Lastly, Westerns were developed with an ECL kit obtained from Amersham.

[2] = tested on: phospho-ERK in Ba/F3 cells expressing wild type Bcr-Abl; test: as above; format: cell-based, mouse; conditions: FIG. 5
Experimental: as §1

[3] = tested on: all four cell lines: Ba/F3, P210 WT, P210 T315I, P210 E255K; test: Cell proliferation (cell viability) by trypan blue dye exclusion; format: cell-based, mouse; conditions: FIG. 4, 3 experiments, read-out: IC50 for inhibition of cell proliferation
Experimental: Briefly, cell culture methods were as follows. […] Cell proliferation assays were performed as follows.

[4] = tested on: chronic myelogenous leukemia; conditions: CML patients, remissions achieved during blast phase; cited from earlier work

SMILES | effect on phospho-ERK levels [1] | effect on phospho-ERK levels [2] | IC50 [3] [µM] | time to relapse after remission [4]
CNC(=O)c1cc(Oc2ccc(NC(=O)Nc3ccc(Cl)c(C(F)(F)F)c3)cc2)ccn1 [BAY 43-9006] | decrease in phospho-ERK levels | decrease in phospho-ERK levels | 4 to 8 | –
Cc1ccc(NC(=O)c2ccc(CN3CCN(C)CC3)cc2)cc1Nc1nccc(-c2cccnc2)n1 [imatinib] | – | – | – | 2-6 months
